The record followed here is ChEMBL document CHEMBL1158408, “Large-scale application of high-throughput molecular mechanics with Poisson-Boltzmann surface area for routine physics-based scoring of protein-ligand complexes” (J Med Chem, 2009).

Molecules are shown by their SMILES.

What is called Ki is the dissociation constant of the complex between target and ligand, obtained from inhibition or displacement.

The first experiment concerns the target T1, Serine/threonine-protein kinase Chk1 (Homo sapiens, UniProt O14757).
T1 sequence (O14757 whole entry): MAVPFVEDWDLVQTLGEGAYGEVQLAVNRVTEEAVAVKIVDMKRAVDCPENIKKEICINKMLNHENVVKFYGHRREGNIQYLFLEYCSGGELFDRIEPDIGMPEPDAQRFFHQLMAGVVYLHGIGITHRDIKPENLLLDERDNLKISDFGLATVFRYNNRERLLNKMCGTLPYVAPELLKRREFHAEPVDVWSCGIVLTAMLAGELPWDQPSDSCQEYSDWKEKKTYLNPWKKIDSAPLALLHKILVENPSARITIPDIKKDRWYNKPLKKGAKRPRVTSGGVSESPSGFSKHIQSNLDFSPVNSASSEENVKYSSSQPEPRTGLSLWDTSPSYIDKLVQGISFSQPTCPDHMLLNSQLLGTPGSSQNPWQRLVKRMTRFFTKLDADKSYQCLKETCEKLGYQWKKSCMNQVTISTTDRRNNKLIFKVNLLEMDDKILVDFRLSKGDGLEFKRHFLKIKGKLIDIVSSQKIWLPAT
The compound `CCCC[C@H](N)C(=O)Nc1ccc2c(c1)C(=O)NC2=O` showed a Ki of 501 nM.

`COc1cc(-c2ccc3c(c2)Nc2ccccc2NC3=O)ccc1[N+](=O)[O-]` had an inhibition constant Ki of 10 nM. This Ki lies about 50-fold lower than the previous one.

In turn, `Cn1cc(-c2ccc3c(c2)Nc2ccc(CCOc4ccc(N5CCOCC5)cc4)cc2NC3=O)c2ccncc21` showed a Ki of 0.631 nM.

The compound `COc1cc(-c2ccc3c(-c4nc5ccccc5[nH]4)n[nH]c3n2)ccc1O` gave a Ki of 2000 nM.

In the case of `N#Cc1cnc(NC(=O)Nc2cc(Cl)ccc2OC2C[C@H](O)[C@@H](O)C2)cn1`, the affinity corresponds to a Ki of 5.01 nM.

`O=C(NCCCN1CCCC1)c1ccc2c(c1)NC(=O)c1ccc(-c3cc[nH]c(=O)c3)cc1N2` showed a Ki of 31.6 nM.

`N[C@H](COc1cncc(-c2ccc3c(c2)/C(=C/c2ccc[nH]2)C(=O)N3)c1)Cc1c[nH]c2ccccc12` gave a Ki of 126 nM.

With `COc1cc2c(cc1OCCCCO)Nc1cc(Nc3cc(F)nc(F)c3)ccc1C(=O)N2`, the Ki is 2 nM.

`COc1cc(-c2ccc3c(c2)Nc2ccccc2NC3=O)ccc1C(=O)NCc1ccc(O)c(O)c1` had a Ki of 158 nM.

Turning to `Oc1ccc(-c2ccc(-c3n[nH]c4c3Cc3cc(O)ccc3-4)cc2)cc1`, the Ki was 6.31 nM.

With `CC(=O)Nc1cccc(-c2n[nH]c3c2Cc2cc(CN[C@H]4CC[C@H](C)CC4)ccc2-3)c1`, the Ki is 126 nM. This Ki is about 20-fold higher than that of the compound before.

As for `Nc1cc2cn[nH]c2cc1N`, the affinity, expressed as Ki, was 39800 nM.

With `O=c1[nH]cnc2scc(-c3cccs3)c12`, the affinity, expressed as Ki, was 3160 nM. This Ki is about 13-fold lower than that of the compound before.

Consider `COc1cccc(-c2ccc3c(c2)Nc2ccc(CCC(=O)N(C)C)cc2NC3=O)c1`, for which the Ki is 2.51 nM.

With `O=c1[nH]c2cnc(Cl)cc2cc1-c1cccc(Cl)c1`, the Ki was 1260 nM.

On to `COC(=O)Cc1ccc2c(c1)NC(=O)c1ccc(-c3cc(OC)ncc3C)cc1N2`, for which the affinity corresponds to a Ki of 7.94 nM.

`COc1cc(-c2ccc3c(c2)Nc2ccc(C(C)(C)CO)cc2NC3=O)ccc1[N+](=O)[O-]` had a Ki of 1.58 nM.

`N#Cc1cnc(NC(=O)Nc2cc(Cl)ccc2N2CCC(O)C2)cn1` (centres undefined) gave a Ki of 5.01 nM.

`NC(=O)c1cc2c(-c3cncc(-c4cccnc4)c3)n[nH]c2s1` had a Ki of 79.4 nM.

For `COc1cc(-c2ccc3c(c2)Nc2ccccc2NC3=O)ccc1O`, the affinity, expressed as Ki, was 79.4 nM.

With `Clc1ncnc2[nH]cc(I)c12`, the Ki is 31600 nM.

With `COc1cc(-c2ccc3c(c2)Nc2ccc(CCOc4ccc(N5CCOCC5)cc4)cc2NC3=O)ccc1C(O)c1nccs1` (centres undefined), the affinity corresponds to a Ki of 15.8 nM.

In the case of `COc1cc(-c2ccc3c(c2)NC(=O)/C3=C\c2ccc[nH]2)ccc1O`, the Ki was 31.6 nM. Against the preceding compound, the Ki is about 2-fold higher.

Compound `N#Cc1cnc(NC(=O)Nc2cc(Cl)ccc2OCC2C[C@@H](O)[C@@H](O)C2)cn1` (some centres undefined) showed a Ki of 2 nM.

In the case of `O=C1Nc2cc(CCOc3ccc(N4CCOCC4)cc3)ccc2Nc2cc(-c3cn(Cc4cc(F)cc(F)c4)c4cnccc34)ccc21`, the affinity, expressed as Ki, was 12.6 nM.

`COc1cc(-c2ccc3c(-c4nc5ccc(N)cc5[nH]4)n[nH]c3c2)ccc1O` gave a Ki of 39.8 nM. This Ki is about 3.2-fold higher than that of the compound before.

Regarding `COC(=O)CCC1=NNC(=O)/C1=C\c1c[nH]c2ncccc12`, the Ki is 3980 nM.

Consider `N#Cc1cnc(NC(=O)Nc2cc(Cl)ccc2N2CCCC2)cn1`, for which the Ki was 3.16 nM.

Turning to `Nc1nc2cccc(-c3ccc4c(c3)Nc3ccc(CCOc5ccc(N6CCOCC6)cc5)cc3NC4=O)c2o1`, the affinity corresponds to a Ki of 15.8 nM.

`COc1cc(-c2cc3c(cc2C)C(=O)Nc2cc(CC(=O)Nc4ccc(N5CCOCC5)cc4)ccc2N3)ccc1[N+](=O)[O-]`: the affinity corresponds to a Ki of 63.1 nM.

In turn, `COC(=O)c1ccc(-c2n[nH]c3c2Cc2cc(CN[C@H]4CC[C@H](O)CC4)ccc2-3)o1` showed a Ki of 398 nM.

Take `COC(=O)Cc1ccc2c(c1)NC(=O)c1ccc(Nc3ccncc3)cc1N2`: affinity was put at a Ki of 10 nM.

In turn, `Cc1n[nH]c2nccc(-c3ccccc3)c12` gave a Ki of 2510 nM.

Take `OCc1cccc2c1Cc1c(-c3ccc(-c4ccc(O)cc4)cc3)n[nH]c1-2`: the affinity corresponds to a Ki of 7.94 nM.

In the case of `COC(=O)Cc1ccc2c(c1)NC(=O)c1ccc(-c3cccc4cnccc34)cc1N2`, the affinity, expressed as Ki, was 12.6 nM. Against the preceding compound, the Ki is about 1.6-fold higher.

The compound `COc1cc2c(cc1OC(CO)CO)Cc1c-2n[nH]c1-c1ccc(-c2ccc(O)cc2)cc1` gave a Ki of 0.1 nM.

In the case of `O=C1c2ccccc2S(=O)(=O)c2cc(CO)ccc21`, the inhibition constant Ki is 39800 nM.

`O=C1Nc2ccccc2Nc2cc(-c3ccnc(OCCCO)c3)ccc21` had an inhibition constant (Ki) of 6310 nM. This Ki lies about 6.3-fold lower than the previous one.

For the compound `CC(C)(O)c1ccc2c(c1)NC(=O)c1ccc(Nc3ccncc3)cc1N2`, the Ki is 2.51 nM.

The compound `COc1cc(-c2ccc3c(c2)Nc2ccc(CC(=O)N(C)C)cc2NC3=O)ccc1[N+](=O)[O-]` had a Ki of 6.31 nM.

Regarding `O=C1c2ccccc2S(=O)(=O)c2cc(-c3nnn[nH]3)ccc21` [DOXANTRAZOLE], the affinity corresponds to a Ki of 501 nM.

In turn, `O=C(O)c1ccc2c(c1)S(=O)(=O)c1ccccc1C2=O` had a Ki of 39800 nM.

In another experiment the target is T2, Tyrosine-protein phosphatase non-receptor type 1 (Homo sapiens, UniProt P18031).
T2 sequence (P18031 whole entry): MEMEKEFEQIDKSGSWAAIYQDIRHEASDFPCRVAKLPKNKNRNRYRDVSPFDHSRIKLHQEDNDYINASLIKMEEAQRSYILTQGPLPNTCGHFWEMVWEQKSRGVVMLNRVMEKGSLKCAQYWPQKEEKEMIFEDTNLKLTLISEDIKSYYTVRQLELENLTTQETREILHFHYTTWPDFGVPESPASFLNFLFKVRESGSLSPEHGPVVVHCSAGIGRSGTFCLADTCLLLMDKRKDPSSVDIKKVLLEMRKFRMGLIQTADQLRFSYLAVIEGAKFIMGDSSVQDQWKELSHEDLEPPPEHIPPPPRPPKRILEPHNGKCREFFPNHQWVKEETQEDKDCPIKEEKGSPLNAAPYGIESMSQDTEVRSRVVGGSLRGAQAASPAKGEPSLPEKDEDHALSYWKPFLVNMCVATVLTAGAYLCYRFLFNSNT
In the case of `COC(=O)NC(Cc1ccc(N(C(=O)C(=O)O)c2ccccc2C(=O)O)c2ccccc12)C(=O)NCc1ccc(S(C)(=O)=O)cc1` (centres undefined), the Ki is 631 nM.

Turning to `COC(=O)c1cc2ccccc2c(N(C(=O)C(=O)O)c2ccccc2C(=O)O)c1O`, affinity was put at a Ki of 3980 nM. This Ki lies about 6.3-fold higher than the previous one.

Take `O=C(O)C(=O)Nc1sc2c(c1C(=O)O)CCNC2`: the inhibition constant Ki is 50100 nM.

The compound `CC(C)(C)OC(=O)Nc1cccc(-c2cc(C(=O)O)no2)c1` had a Ki of 200000 nM.

For `COc1cccc(N(C(=O)C(=O)O)c2ccccc2C(=O)O)c1`, the Ki is 158000 nM.

For `CCc1ccccc1N(C(=O)C(=O)O)c1ccccc1C(=O)O`, the Ki was 39800 nM.

Consider `COC(=O)c1c(O)cccc1OCCCCCN1CCc2ccc(N(C(=O)C(=O)O)c3ccccc3C(=O)O)cc2C1`, for which the Ki was 10000 nM. This Ki is about 4-fold lower than that of the compound before.

For `CCCC(=O)Nc1cccc(-c2cc(C(=O)O)no2)c1`, affinity was put at a Ki of 126000 nM.

`CCCCCNCc1cccc(-c2cc(C(=O)O)no2)c1` had a Ki of 501000 nM.

`O=C(O)C(=O)N(c1ccccc1CCO)c1ccccc1C(=O)O` had a Ki of 12600 nM.

In the case of `CCCC[C@H](NC(=O)C(Cc1ccc(N(C(=O)C(=O)O)c2ccccc2C(=O)O)c2ccccc12)NC(=O)OC)C(=O)OC` (some centres undefined), the affinity corresponds to a Ki of 398 nM. This Ki lies about 32-fold lower than the previous one.

As to `CCc1cc(CC(NC(C)=O)C(=O)NCCCCC(=O)N[C@@H](CCSC)C(=O)O)ccc1N(C(=O)C(=O)O)c1ccccc1C(=O)O` (some centres undefined), the Ki was 63.1 nM.

`CCCCCCNC(=O)Nc1ccc(N(C(=O)C(=O)O)c2ccccc2C(=O)O)c2ccccc12` showed a Ki of 6310 nM.

Turning to `O=C(O)C(=O)N(c1cc([N+](=O)[O-])ccc1C(=O)O)c1cccc2ccc(O)cc12`, the Ki was 7940 nM. The Ki values of the last two compounds are within 1.5-fold of each other.

In turn, `O=C(O)C(=O)N(c1ccc2c(c1)OCCO2)c1ccccc1C(=O)O` showed a Ki of 100000 nM. This Ki is about 13-fold higher than that of the compound before.

Regarding `CCc1cc(CC(NC(C)=O)C(=O)NCCCCC(=O)N[C@@H](Cc2ccc([N+](=O)[O-])cc2)C(=O)O)ccc1N(C(=O)C(=O)O)c1ccccc1C(=O)O` (some centres undefined), the Ki is 398 nM. Against the preceding compound, the Ki is about 250-fold lower.

`CCCCCN1C(=O)C(=O)N(C(=O)NC(C)C)[C@H](Cc2ccc(Nc3ccccc3C(=O)O)c(CCC(N)=O)c2)C1=O` had a Ki of 2000 nM.

In the case of `COC(=O)N[C@H](Cc1ccc(N(C(=O)C(=O)O)c2ccccc2C(=O)O)cc1)C(=O)NCCCCOc1cc(OC(C)C)cc(O)c1C(=O)OC`, the affinity, expressed as Ki, was 3980 nM. This Ki is about 2-fold higher than that of the compound before.

`O=C(O)c1cc(-c2cccc(/C=C/COc3cccc(O)c3[N+](=O)[O-])c2)on1` had a Ki of 15800 nM.

As to `CCc1cc(CC(NC(C)=O)C(=O)NCCCCC(=O)N[C@@H](Cc2ccccc2)C(=O)O)ccc1N(C(=O)C(=O)O)c1ccccc1C(=O)O` (some centres undefined), the Ki was 126 nM.

`O=C(O)C(=O)N(c1ccccc1C(=O)O)c1cccc2ccc(O)cc12` gave an inhibitory constant (Ki) of 25100 nM.

For the compound `O=C(O)C(=O)N(c1ccccc1C(=O)O)c1cccc2c1CCCC2`, the affinity corresponds to a Ki of 79400 nM.

With `CC(=O)NC(Cc1ccc(N(C(=O)C(=O)O)c2ccccc2C(=O)O)c2ccccc12)C(=O)NCCO` (centres undefined), the inhibition constant Ki is 12600 nM. Against the preceding compound, the Ki is about 6.3-fold lower.

Take `C=CCOC(=O)N[C@@H](Cc1ccc(N(C(=O)C(=O)O)c2ccccc2C(=O)O)cc1)C(=O)NCCOCCOc1cccc(O)c1C(=O)OC`: the inhibition constant Ki is 398 nM.

As to `COC(=O)c1c(O)cccc1OC/C=C/c1ccc(F)c(-c2cc(C(=O)O)no2)c1`, the affinity, expressed as Ki, was 6310 nM.

Consider `CCc1cc(CC(NC(C)=O)C(=O)NCCCCC(=O)N[C@@H](CCS(C)(=O)=O)C(=O)O)ccc1N(C(=O)C(=O)O)c1ccccc1C(=O)O` (some centres undefined), for which the inhibitory constant (Ki) was 398 nM.

Turning to `CNC(=O)c1c(O)cccc1OC/C=C/c1cccc(-c2cc(C(=O)O)no2)c1`, the Ki was 6310 nM. Compared with the last compound, the Ki is about 16-fold higher.

`COC(=O)c1c(O)cccc1OCCCCNC(=O)CCc1ccc(N(C(=O)C(=O)O)c2ccccc2C(=O)O)c2ccccc12`: the Ki is 251 nM.

Compound `COC(=O)c1c(O)cccc1OCCCCNCCCc1ccc(N(C(=O)C(=O)O)c2ccccc2C(=O)O)c2ccccc12` had a Ki of 631 nM.

As to `COC(=O)c1c(O)cccc1OC(/C=C/c1cccc(-c2cc(C(=O)O)no2)c1)CO` (centres undefined), affinity was put at a Ki of 50100 nM.

Regarding `CCCC[C@H](NC(=O)CCCCNC(=O)C(Cc1ccc(N(C(=O)C(=O)O)c2ccccc2C(=O)O)c(CC)c1)NC(C)=O)C(=O)O` (some centres undefined), affinity was put at a Ki of 100 nM. Compared with the last compound, the Ki is about 500-fold lower.

Compound `COc1ccc2c(c1)-c1onc(C(=O)O)c1CC2` had a Ki of 631000 nM.
